Measured values taken from PMC5175396, “Cytotoxicity of Plumbagin, Rapanone and 12 other naturally occurring Quinones from Kenyan Flora towards human carcinoma cells” (BMC Pharmacology & Toxicology, 2016).

Assays:
[1] = system: HepG2 hepatocarcinoma cells; experiment: Neutral red (NR) uptake cytotoxicity assay, HepG2; format: cell-based, human; settings: for IC50: Homo sapiens, HepG2, neutral red assay, 72 h incubation, read-out: IC50 HepG2; for selectivity index HepG2: IC50 in CRL2120 normal fibroblasts divided by IC50 in HepG2
Source text: (§1) Six human cancer cell lines and one normal cell line were used in this study. They included A549 human non-small cell lung cancer (NSCLC) cell line, obtained from the Institute for Fermentation, Osaka (IFO, Japan) and provided by Prof. Dr. Tansu Koparal (Anadolu University, Eskisehir, Turkey), SPC212 human mesothelioma cell line obtained from American Type Culture Collection (ATCC) and provided by Dr. Asuman Demiroğlu Zergeroğlu (Gebze Technical University, Kocaeli, Turkey), DLD-1 colorectal adenocarcinoma cell lines obtained from ATCC (CCL-221), Caco2 colorectal adenocarcinoma cells (ATCC, HTB-37) obtained from the ŞAP Institute of Turkey (Ankara), HepG2 hepatocarcinoma cells (ATCC, HB-8065) and MCF-7 breast adenocarcinoma cells (ATCC, HTB-22) were provided by Prof. Dr. Tansu Koparal (Anadolu University, Eskisehir, Turkey). The normal CRL2120 human skin fibroblasts were obtained from ATCC [CCD1094Sk (ATCC, CRL-2120)]. The cells were maintained as a monolayer in DMEM medium (Sigma-aldrich, Munich, Germany) medium supplemented with 10% fetal calf serum and 1% penicillin (100 U/mL)-streptomycin (100 μg/mL) in a humidified 5% CO2 atmosphere at 37 °C.
(§2) The cytotoxicity of samples was performed by NR uptake assay as previously described. This method is based on the ability of viable cells to incorporate and bind the supravital dye NR in the lysosomes. The procedure is cheaper and more sensitive than other cytotoxicity tests. […] Briefly, cells were detached by treatment with 0.25% trypsin/EDTA (Invitrogen) and an aliquot of 1 × 10^4 cells was placed in each well of a 96-well cell culture plate […]. The cells were allowed to attach overnight and subsequently treated with different concentrations of the 14 compounds. Each of the studied samples was immediately added in varying concentrations in additional 100 μL of culture medium to obtain a total volume of […]/well. After 72 h incubation in humidified 5% CO2 atmosphere at 37 °C, the medium was removed and 200 μL fresh medium containing 50 μg/mL NR was added to each well and incubation continued for an additional 3 h at 37 °C in 5% CO2 atmosphere. The dye medium was then removed and each well was then washed rapidly with 200 μL phosphate buffer saline (PBS) followed by addition of 200 μL of acetic acid-water-ethanol in water (1:49:50). The plates were kept for 15 min at room temperature to extract the dye and then shaken for a few minutes on a GFL 3012 shaker (Gesellschaft für Labortechnik mbH, Burgwedel, Germany). Absorbance was measured on ELx 808 Ultra Microplate Reader (Biotek) equipped with a 540 nm filter. Each assay was done at least three times, with three replicates each. The viability was evaluated based on a comparison with untreated cells. The IC50 values represent the sample’s concentrations required to inhibit 50% of cell proliferation and were calculated from a calibration curve by linear regression using Microsoft Excel.

[2] = system: A549 human non-small cell lung cancer (NSCLC) cell line; experiment: Neutral red (NR) uptake cytotoxicity assay, A549; format: cell-based; settings: for IC50: Homo sapiens, A549, 72 h, neutral red assay, 72 h incubation; for selectivity index A549: IC50 in CRL2120 normal fibroblasts divided by IC50 in A549
Source text: as §1
as §2, with “lysosomes.” for “lysosomes. The procedure is cheaper and more sensitive than other cytotoxicity tests.”

[3] = system: caspase 9 in MCF-7 cells; experiment: Caspase-Glo 9 assay; format: cell-based, human; settings: IC50 and 2-fold IC50, 6 h (data not shown)
Procedure: Caspases activity in MCF-7 cells was detected using Caspase-Glo 3/7 and Caspase-Glo 9 Assay kits (Promega, Mannheim, Germany) as previously reported. […] Luminescence was measured using an BioTek Synergy™ HT multi-detection microplate reader. Caspase activity was expressed as percentage of the untreated control.

[4] = system: MCF-7 cells; experiment: Flow cytometry cell cycle analysis and detection of apoptotic cells; format: cell-based, human; settings: for Sub-G0/G1 (apoptotic) cells, % of cells: non-treated cells 3.1%; for cell cycle arrest: ¼ × IC50 to IC50, 72 h
Procedure: The cell-cycle analysis was performed by flow cytometry using BD cycletest^TM Plus DNA Kit Assay (BD Biosciences, San Jose, USA). The BD Cycletest™ Plus DNA kit provides a set of reagents for isolating and staining cell nuclei. Flow cytometric analysis of differentially stained cells is used to estimate the DNA index (DI) and cell-cycle phase distributions. Briefly, MCF-7 cells (3 mL, 1 × 10^5 cells/mL) were seeded into each well of 6-well plates and allowed to attach for 24 h. […] The untreated cells (control) were also included in the assay. They were further trypsinized and suspended in 1 mL PBS, then centrifuged at 400 g for 5 min at room temperature (RT). The cells were further processed according to the manufacturer protocol: addition of 250 μL of solution A (trypsin buffer), 10 min incubation at RT followed by the addition of 200 μL of solution B (trypsin inhibitor and RNAse buffer), 10 min incubation at RT followed by the addition of 200 μL of solution C (2–8 °C) (propidium iodide stain solution), 10 min on ice. The cells were further measured on a BD FACS Aria I Cell Sorter Flow Cytometer (Becton-Dickinson, Germany). For each sample, 10^4 cells were counted. For PI excitation, an argon-ion laser emitting at 488 nm was used. Cytographs were analyzed using BD FACSDiva™ Flow Cytometry Software Version 6.1.2 (Becton-Dickinson).

[5] = system: DLD-1 colorectal adenocarcinoma cell lines; experiment: Neutral red (NR) uptake cytotoxicity assay, DLD-1; format: cell-based, human; settings: for IC50: Homo sapiens, DLD-1, neutral red assay, 72 h incubation, read-out: IC50 DLD-1
Source text: as §1, §2

| SMILES | IC50 [1] | selectivity index HepG2 [1] | IC50 [2] | selectivity index A549 [2] | activity of caspase 9 [3] | Sub-G0/G1 (apoptotic) cells, % of cells ([4]; 1/4xIC50, 72 h) | Sub-G0/G1 (apoptotic) cells, % of cells ([4]; IC50, 72 h) | cell cycle arrest [4] | IC50 [5] | selectivity index DLD-1 ([5]; IC50 in CRL2120 normal fibroblasts divided by IC50 in DLD-1) |
| --- | --- | --- | --- | --- | --- | --- | --- | --- | --- | --- |
| CCCCCCCCCCCCCC1=C(O)C(=O)C=C(O)C1=O [Compound 9, 2,5-dihydroxy-3-tridecyl-2,5-cyclohexadiene-1,4-dione] | 32.7 ± 0.61 µM | 2.91 | 27.4 ± 1.46 µM | 3.48 | no modification | 34.8% | 43.2% | cell cycle arrest between G0/G1 and S phases | 46.6 ± 5.38 µM | 2.04 |
| CC1=CC(=O)c2c(O)cccc2C1=O [Compound 4, 5-hydroxy-2-methyl-1,4-naphthalenedione] | 1.01 ± 0.08 µM | 66.99 | 1.14 ± 0.02 µM | 59.35 | no modification | 10.4% | 20.4% | cell cycle arrest between G0/G1 and S phases | 0.98 ± 0.11 µM |  |
